Experimental data reported in publication PMC8854719, “Phase 1A/1B dose-escalation and -expansion study to evaluate the safety, pharmacokinetics, food effects and antitumor activity of pamiparib in advanced solid tumours” (British Journal of Cancer, 2021).
“Also recorded” adds a separate entry of the source. Marks after values point to notes of the source that are not given here.

Assay: Safety and tolerability: adverse events, dose-limiting toxicities, MTD, RP2D (Phase 1A/1B)
Type: in vivo
Procedure: This was an open-label, Phase 1, dose-escalation/dose-expansion study, conducted across six study centres in Australia. The dose-escalation phase evaluated twice-daily (BID) and once-daily (QD) dosing, and the dose-expansion phase evaluated the BID RP2D from the dose-escalation phase and food effects (Fig. 1). The food-effects cohort comprised two sequences: fast followed by fed (sequence 1) and fed followed by fast (sequence 2). […] The decision to proceed to the next dose cohort was determined by the Safety Monitoring Committee and followed a modified 3 + 3 escalation scheme. […] When ≥2 DLTs occurred in the first 23 days of a dose level, the next lower dose level was declared the MTD. Safety was monitored and DLTs were assessed in all dose cohorts. […] The food-effects cohort investigated the effects of food on the PK of pamiparib in patients with advanced solid tumours.
The QD dosing regimen was added as an amendment to the protocol with the purpose of exploring the feasibility of a more convenient regimen.
Safety and tolerability were assessed throughout the study by monitoring adverse events (AEs), serious AEs, clinical laboratory measurements and physical examinations. Adverse events were categorised according to their severity (National Cancer Institute Common Terminology Criteria for Adverse Events v4.03) and relationship to the study treatment.

C[C@]12CCCN1CC1=NNC(=O)c3cc(F)cc4[nH]c2c1c34 [pamiparib]
Pyrexia, AE of any grade (120 mg BID (n = 5)): 1 (20.0) n (%) | Treatment-emergent AE (120 mg BID (n = 5)): 5 (100.0) n (%) | Treatment-emergent AE: Grade 3 or higher (120 mg BID (n = 5)): 5 (100.0) n (%) | Treatment-emergent AE: Leading to death (120 mg BID (n = 5)): 0 (0.0) n (%) | Treatment-emergent AE: Leading to dose interruption (120 mg BID (n = 5)): 4 (80.0) n (%) | Treatment-emergent AE: Leading to dose modification (120 mg BID (n = 5)): 4 (80.0) n (%) | Treatment-emergent AE: Leading to dose reduction (120 mg BID (n = 5)): 1 (20.0) n (%) | Treatment-emergent AE: Leading to treatment discontinuation (120 mg BID (n = 5)): 2 (40.0) n (%) | Treatment-emergent AE: Serious (120 mg BID (n = 5)): 3 (60.0) n (%) | Treatment-related AE (120 mg BID (n = 5)): 5 (100.0) n (%) | Treatment-related AE: Grade 3 or higher (120 mg BID (n = 5)): 3 (60.0) n (%) | Treatment-related AE: Leading to death (120 mg BID (n = 5)): 0 (0.0) n (%) | Treatment-related AE: Leading to dose interruption (120 mg BID (n = 5)): 3 (60.0) n (%) | Treatment-related AE: Leading to dose modification (120 mg BID (n = 5)): 3 (60.0) n (%) | Treatment-related AE: Leading to dose reduction (120 mg BID (n = 5)): 1 (20.0) n (%) | Treatment-related AE: Leading to treatment discontinuation (120 mg BID (n = 5)): 2 (40.0) n (%) | Treatment-related AE: Serious (120 mg BID (n = 5)): 1 (20.0) n (%) | Upper respiratory tract infection, AE of any grade (120 mg BID (n = 5)): 0 (0.0) n (%) | Urinary tract infection, AE of any grade (120 mg BID (n = 5)): 2 (40.0) n (%) | Vomiting, AE of any grade (120 mg BID (n = 5)): 1 (20.0) n (%) | Dose-limiting toxicities observed (description) (120 mg BID, two patients, n = 1 each): Grade 2 nausea, grade 3 fatigue, and grade 3 paresthesia; also recorded: Grade 2 nausea and Grade 2 anorexia; also recorded: Grade 2 nausea, Grade 3 fatigue and Grade 3 paraesthesia | Diarrhea, AE (120 mg QD): 50.0% | Fatigue, AE (120 mg QD): 75.0% | Nausea, AE (120 mg QD): 50.0% | Dose-limiting toxicity (120 mg QD (n=8)): 0 (0.0) n (%) | Treatment-emergent AE (120 mg QD (n=8)): 8 (100.0) n (%) | Treatment-emergent AE: Grade 3 or higher (120 mg QD (n=8)): 5 (62.5) n (%) | Treatment-emergent AE: Leading to death (120 mg QD (n=8)): 0 (0.0) n (%) | Treatment-emergent AE: Leading to dose interruption (120 mg QD (n=8)): 6 (75.0) n (%) | Treatment-emergent AE: Leading to dose modification (120 mg QD (n=8)): 6 (75.0) n (%) | Treatment-emergent AE: Leading to dose reduction (120 mg QD (n=8)): 1 (12.5) n (%) | Treatment-emergent AE: Leading to treatment discontinuation (120 mg QD (n=8)): 0 (0.0) n (%) | Treatment-emergent AE: Serious (120 mg QD (n=8)): 2 (25.0) n (%) | Treatment-related AE (120 mg QD (n=8)): 6 (75.0) n (%) | Treatment-related AE: Grade 3 or higher (120 mg QD (n=8)): 3 (37.5) n (%) | Treatment-related AE: Leading to death (120 mg QD (n=8)): 0 (0.0) n (%) | Treatment-related AE: Leading to dose interruption (120 mg QD (n=8)): 4 (50.0) n (%) | Treatment-related AE: Leading to dose modification (120 mg QD (n=8)): 4 (50.0) n (%) | Treatment-related AE: Leading to dose reduction (120 mg QD (n=8)): 1 (12.5) n (%) | Treatment-related AE: Leading to treatment discontinuation (120 mg QD (n=8)): 0 (0.0) n (%) | Treatment-related AE: Serious (120 mg QD (n=8)): 0 (0.0) n (%) | Diarrhea, AE (160 mg QD): 45.5% | Fatigue, AE (160 mg QD): 63.6% | Nausea, AE (160 mg QD): 90.9% | Dose-limiting toxicity (160 mg QD (n=11)): 1 (9.1)^d n (%) | Treatment-emergent AE (160 mg QD (n=11)): 11 (100.0) n (%) | Treatment-emergent AE: Grade 3 or higher (160 mg QD (n=11)): 9 (81.8) n (%) | Treatment-emergent AE: Leading to death (160 mg QD (n=11)): 0 (0.0) n (%) | Treatment-emergent AE: Leading to dose interruption (160 mg QD (n=11)): 7 (63.6) n (%) | Treatment-emergent AE: Leading to dose modification (160 mg QD (n=11)): 7 (63.6) n (%) | Treatment-emergent AE: Leading to dose reduction (160 mg QD (n=11)): 0 (0.0) n (%) | Treatment-emergent AE: Leading to treatment discontinuation (160 mg QD (n=11)): 2 (18.2) n (%) | Treatment-emergent AE: Serious (160 mg QD (n=11)): 4 (36.4) n (%) | Treatment-related AE (160 mg QD (n=11)): 11 (100.0) n (%) | Treatment-related AE: Grade 3 or higher (160 mg QD (n=11)): 7 (63.6) n (%) | Treatment-related AE: Leading to death (160 mg QD (n=11)): 0 (0.0) n (%) | Treatment-related AE: Leading to dose interruption (160 mg QD (n=11)): 7 (63.6) n (%) | Treatment-related AE: Leading to dose modification (160 mg QD (n=11)): 7 (63.6) n (%) | Treatment-related AE: Leading to dose reduction (160 mg QD (n=11)): 0 (0.0) n (%) | Treatment-related AE: Leading to treatment discontinuation (160 mg QD (n=11)): 2 (18.2) n (%) | Treatment-related AE: Serious (160 mg QD (n=11)): 1 (9.1) n (%) | Patients who experienced a DLT (160 mg QD, one of 11): 9% | Dose-limiting toxicities observed (description) (160 mg QD, one patient): grade 2 nausea | Serious AE: anemia (101 patients): 4.0% | Serious AE: intestinal obstruction (101 patients): 4.0% | Serious AE: malignant gastrointestinal obstruction (101 patients): 3.0%
